Measurements: US20240409548A1, “MODULATORS OF THE BETA-3 ADRENERGIC RECEPTOR USEFUL FOR THE TREATMENT OR PREVENTION OF DISORDERS RELATED THERETO” (Arena Pharmaceuticals, Inc., priority 2021, published 2024)
Values after ≈ are worked out from the molar mass of the structure shown. Where two headings read alike, the source gives them in different places.

Key:
[1] = slurry, ambient temperature
Description: (§1) Compound C was slurried in various solvents (Table 1) for 2 weeks at ambient temperature (21° C.±1° C.). […] Solubility was determined after 1 day of equilibration and slurries were allowed to stir for 2 weeks. The temperature was monitored and determined to be 21° C.±1° C. for the duration of the study. At the end of 2 weeks, the slurries were removed from stirring and solids were isolated by centrifuge filtration using 0.45-μm nylon filters, allowed to air-dry overnight, and then analyzed by PXRD. Selected samples were also analyzed by TGA and DSC.
X-ray diffraction analysis was performed using a PANalytical. X′Pert PRO MPD powder X-ray diffractometer (EQ0233). Samples were prepared by placing several milligrams of compound onto a sample holder and smoothing flat.

[2] = for Solubility (mM) / Solubility (mg/mL): 21° C.±1° C.
Description: as §1
Solubility was determined by gravimetric analysis after ˜24 hours of equilibration at ambient temperature (21° C.±1° C.). Samples were separated by centrifuge filtration using an Eppendorf 5417C model centrifuge. Suspension samples were placed into centrifuge filter tubes with 0.45-μm nylon membrane filter and spun at 10000 rpm for 1 minute. Filtrate aliquots of 10 to 20 μL were placed into separate thermogravimetric analyzer pans, previously tared on a TA Instruments Q5000. The filtrates were dried to achieve dry residual solid weights. Solubility was calculated by dividing the dry residual weight by the aliquot volume.

[3] = Aqueous solubility at various pH values (pH-solubility fit); conditions: for aqueous solubility: A=active free base
Description: Solubility of Compound A in aqueous media was measured at various pH values. The conjugate acid ionization constant and intrinsic solubility of the free base were derived by fitting the measured pH-solubility data to the slope-intercept form of the Henderson-Hasselbalch equation for monobasic molecules.

[4] = Dynamic moisture sorption (DMS); format: physicochemical
Description: Dynamic Moisture Sorption analysis was performed using a TA Instruments Q5000 SA (EQ2418). The sample was prepared for DMS analysis by placing ˜5 mg of compound into a tared sample holder.

[5] = dimethyl sulfoxide (remained a solution), ~24 hours
[6] = methyl t-butyl ether, ~24 hours equilibration
[7] = water/acetone (1:20), ~24 hours
[8] = water/acetonitrile (1:20), ~24 hours
[9] = water/isopropyl alcohol (1:20), ~24 hours

## CCn1cc(S(=O)(=O)N2CCC3(CC2)C[C@@H](NC[C@H](O)COc2cccc(S(C)(=O)=O)c2)CO3)c(=O)c2ccccc21.CCn1cc(S(=O)(=O)N2CCC3(CC2)C[C@@H](NC[C@H](O)COc2cccc(S(C)(=O)=O)c2)CO3)c(=O)c2ccccc21.CS(=O)(=O)O.CS(=O)(=O)O.O [Compound B, 1-ethyl-3-((R)-3-((S)-2-hydroxy-3-(3-(methylsulfonyl)phenoxy)propylamino)-1-oxa-8-azaspiro[4.5]decan-8-ylsulfonyl)quinolin-4(1H)-one mesylate hemihydrate Form 1]
[1]; listed as Form 1
  crystal form stability / conversion: converts to Form 2 in water

## CCn1cc(S(=O)(=O)N2CCC3(CC2)C[C@@H](NC[C@H](O)COc2cccc(S(C)(=O)=O)c2)CO3)c(=O)c2ccccc21.CCn1cc(S(=O)(=O)N2CCC3(CC2)C[C@@H](NC[C@H](O)COc2cccc(S(C)(=O)=O)c2)CO3)c(=O)c2ccccc21.CS(=O)(=O)O.CS(=O)(=O)O.O [Compound A, 1-ethyl-3-((R)-3-((S)-2-hydroxy-3-(3-(methylsulfonyl)phenoxy)propylamino)-1-oxa-8-azaspiro[4.5]decan-8-ylsulfonyl)quinolin-4(1H)-one mesylate hemihydrate Form 2]
[2]; Acetone, ~24 hours
  Solubility (mM): 0.61 mM
  Solubility (mg/mL): 0.44 mg/mL
[2]; Acetonitrile, ~24 hours
  Solubility (mM): 2.31 mM
  Solubility (mg/mL): 1.66 mg/mL
[2]; Tetrahydrofuran, ~24 hours
  Solubility (mM): 0.39 mM
  Solubility (mg/mL): 0.28 mg/mL
[2]; Water, ~24 hours
  Solubility (mM): 52.6 mM
  Solubility (mg/mL): 30.5 mg/mL
[2]; [5]
  Solubility (mM): >610 mM
  Solubility (mg/mL): >437 mg/mL
[2]; ethyl acetate, ~24 hours
  Solubility (mM): 0.88 mM
  Solubility (mg/mL): 0.63 mg/mL
[2]; ethyl alcohol, ~24 hours
  Solubility (mM): 1.03 mM
  Solubility (mg/mL): 0.73 mg/mL
[2]; in methanol, dimethyl sulfoxide, and aqueous systems (high solubility)
  solubility: > 20000 µM
[2]; in most organic solvents (low solubility)
  solubility: ≤ 1000 µM
[2]; isopropyl alcohol, ~24 hours
  Solubility (mM): 1.01 mM
  Solubility (mg/mL): 0.72 mg/mL
[2]; methyl alcohol, ~24 hours
  Solubility (mM): 21.6 mM
  Solubility (mg/mL): 15.5 mg/mL
[2]; methyl ethyl ketone, ~24 hours
  Solubility (mM): 0.99 mM
  Solubility (mg/mL): 0.71 mg/mL
[2]; [6]
  Solubility (mM): 0.76 mM
  Solubility (mg/mL): 0.54 mg/mL
[2]; [7]
  Solubility (mM): 47.3 mM
  Solubility (mg/mL): 33.9 mg/mL
[2]; [8]
  Solubility (mM): 97.0 mM
  Solubility (mg/mL): 69.5 mg/mL
[2]; [9]
  Solubility (mM): 29.4 mM
  Solubility (mg/mL): 21.2 mg/mL
[3]
  aqueous solubility: about 28 mgA/mL
[3]; listed as mesylate salt
  aqueous solubility: 28 mgA/mL
[3]; associated with the mesylate salt
  pHmax: 5.7
[4]; DMS scan 0 to 90% RH, 25° C.
  hygroscopicity: non-hygroscopic
[4]; at 2500, after essentially fully rehydrating
  weight change between 30% RH and 90% RH (DMS): ~0.1%
[4]; condition 4000 and ~1% RH until steady weight in ~1 hour
  total weight change of water during the drying step (DMS): about 0.35%
[1]; listed as Form 2
  crystal form stability / conversion: does not convert to any other form at ambient temperature

## CCn1cc(S(=O)(=O)N2CCC3(CC2)C[C@@H](NC[C@H](O)COc2cccc(S(C)(=O)=O)c2)CO3)c(=O)c2ccccc21 [Compound D, 1-ethyl-3-((R)-3-((S)-2-hydroxy-3-(3-(methylsulfonyl)phenoxy)propylamino)-1-oxa-8-azaspiro[4.5]decan-8-ylsulfonyl)quinolin-4(1H)-one]
[3]
  pKa: 7.44
[3]; aqueous buffer
  solubility: 530 µg/mL (≈ 855 µM)
